Assay results published in US7863265B2, “2-azetidinone derivatives and their use as cholesterol absorption inhibitors for the treatment of hyperlipidaemia” (AstraZeneca AB, priority 2005, dated 2011).

Assays:
[1] = system: 14C-cholesterol absorption; assay: In vivo testing of cholesterol absorption inhibitors (A); conditions: 0.2 μmol/kg by gavage, procedure A, C57BL/6 female mice
Description: In Vivo Testing of Cholesterol Absorption Inhibitors (A)
C57BL/6 female mice were maintained on regular chow diet and housed in individual cages to collect faeces. Mice were fasted for 3 hours and then gavaged with vehicle or compound. Half an hour later the mice were gavaged with radiolabelled cholesterol. Six hours after the ^14C-cholesterol gavage blood samples were taken via the tail and plasma prepared to determine how much cholesterol were absorbed. 24 hours after the gavage of ^14C-cholesterol the mice were bled and plasma were prepared for analysis. Faeces were collected for 24 hours to assess absorption efficiency.

[2] = Absorption in a Caco-2 cells model; assay type: in vitro ADME; conditions: human
Description: (§1) Absorption of the compounds of formula (I) was tested in a Caco-2 cells model (Gastroenterology 1989, 96, 736): […]

Caco-2 cells = assay: Absorption in a Caco-2 cells model; assay type: in vitro ADME
Description: as §1

Structure (SMILES): O=C(COc1ccc([C@@H]2[C@@H](SCC(O)c3ccc(F)cc3)C(=O)N2c2ccc(F)cc2)cc1)NCC(=O)N[C@H](CC1CCCCC1)C(=O)O (single isomer, unassigned) [Example 4, N-{[4-((2R,3R)-1-(4-fluorophenyl)-3-{[(2R or S)-2-(4-fluorophenyl)-2-hydroxyethyl]thio}-4-oxoazetidin-2-yl)phenoxy]acetyl}glycyl-3-cyclohexyl-D-alanine]
- inhibition of 14C-cholesterol absorption [1]: 75%
- Papp [2]: 0.04 ×10⁻⁶ cm/s

Structure (SMILES): CC(C)(c1ccccc1)[C@@H](NC(=O)CNC(=O)COc1ccc([C@@H]2[C@@H](SCC(O)c3ccc(F)cc3)C(=O)N2c2ccc(F)cc2)cc1)C(=O)O (single isomer, unassigned) [Example 5, N-{[4-((2R,3R)-1-(4-fluorophenyl)-3-{[(2R or S)-2-(4-fluorophenyl)-2-hydroxyethyl]thio}-4-oxoazetidin-2-yl)phenoxy]acetyl}glycyl-β,β-dimethyl-D-phenylalanine]
- inhibition of 14C-cholesterol absorption [1]: 78%

Structure (SMILES): CC(C)(C)[C@@H](NC(=O)CNC(=O)COc1ccc([C@@H]2[C@@H](SC[C@H](O)c3ccc(F)cc3)C(=O)N2c2ccc(F)cc2)cc1)C(=O)O [Example 3, N-{[4-((2R,3R)-1-(4-fluorophenyl)-3-{[(2R or 6)-2-(4-fluorophenyl)-2-hydroxyethyl]thio}-4-oxoazetidin-2-yl)phenoxy]acetyl}glycyl-3-methyl-D-valine]
- inhibition of 14C-cholesterol absorption [1]: 73%
- Caco value (Caco-2 cells): 0.02 ×10⁻⁶ cm/s
